Results as given in publication PMC9851200, “Multiparameter phenotypic screening for endogenous TFEB and TFE3 translocation identifies novel chemical series modulating lysosome function” (Autophagy, 2022).
Read-outs that look alike come from different tables or passages of the source.

Key:
Test in all cases: biochemical
Type in all cases: binding
[1] = biological target: T1, cellular kinases of SH-SY5Y cells (Homo sapiens, UniProt O96017); conditions: 2µM, SH-SY5Y cells, read-out: KiNativ in-cell binding, % Inhibition, CHEK2/CHK2
T1 construct: endogenous in cells; host or cells: SH-SY5Y
T1 sequence (O96017 whole entry): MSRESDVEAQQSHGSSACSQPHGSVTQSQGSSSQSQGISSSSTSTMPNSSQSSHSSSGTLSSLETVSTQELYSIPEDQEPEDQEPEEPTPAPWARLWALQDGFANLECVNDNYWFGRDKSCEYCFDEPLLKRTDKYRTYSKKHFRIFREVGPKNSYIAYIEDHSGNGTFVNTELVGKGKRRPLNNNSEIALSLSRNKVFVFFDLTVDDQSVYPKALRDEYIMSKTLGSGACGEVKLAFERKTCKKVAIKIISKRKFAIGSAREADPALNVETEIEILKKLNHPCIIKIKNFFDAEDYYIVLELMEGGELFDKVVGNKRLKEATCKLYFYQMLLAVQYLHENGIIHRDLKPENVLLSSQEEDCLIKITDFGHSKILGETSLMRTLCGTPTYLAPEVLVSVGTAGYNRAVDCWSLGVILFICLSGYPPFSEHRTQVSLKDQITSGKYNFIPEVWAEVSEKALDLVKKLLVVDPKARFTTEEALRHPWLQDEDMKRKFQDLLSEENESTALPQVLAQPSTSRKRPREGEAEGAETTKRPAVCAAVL
Description: (§1) As KINOMEscan is an in vitro assay, and as different cell types have variable kinase expression profiles we sought to determine the kinase binding profile in our SH-SY5Y TFEB-relocalization cell model. […] Bound kinases were pulled down and analyzed by mass spectrometry to determine the in situ kinase binding profile for each compound.

[2] = biological target: cellular kinases of SH-SY5Y cells (Homo sapiens, UniProt P07332); conditions: 2µM; SH-SY5Y cells; Labeling Site Lys1; LRADNTLVAVKSCR; read-out: KiNativ in-cell binding, % Inhibition, FES
Description: as §1

[3] = biological target: T2, cellular kinases of SH-SY5Y cells (Homo sapiens, UniProt P23743)
T2 construct: endogenous in cells; host or cells: SH-SY5Y
Description: as §1

[4] = biological target: cellular kinases of SH-SY5Y cells (Homo sapiens, UniProt P24941); conditions: 2µM, SH-SY5Y cells
Description: as §1

[5] = biological target: cellular kinases of SH-SY5Y cells (Homo sapiens, UniProt P41743); conditions: 2µM; SH-SY5Y cells; Labeling Site Lys1; IYAMKVVK; read-out: KiNativ in-cell binding, % Inhibition, PRKCI/PKCi
Description: as §1

[6] = biological target: cellular kinases of SH-SY5Y cells (Homo sapiens, UniProt P42345); conditions: 2µM; SH-SY5Y cells; Labeling Site ATP; IQSIAPSLQVITSKQRPR; read-out: KiNativ in-cell binding, % Inhibition, MTOR
Description: as §1

[7] = biological target: cellular kinases of SH-SY5Y cells (Homo sapiens, UniProt P78368); conditions: 2µM; SH-SY5Y cells; Labeling Site Lys2; DVKPENFLVGRPGTK; read-out: KiNativ in-cell binding, % Inhibition, CSNK1G2/CK1g2
Description: as §1

[8] = biological target: cellular kinases of SH-SY5Y cells (Homo sapiens, UniProt Q13163); conditions: 2µM; SH-SY5Y cells; Labeling Site Lys2; DVKPSNMLVNTR; read-out: KiNativ in-cell binding, % Inhibition, MAP2K5
Description: as §1

[9] = biological target: cellular kinases of SH-SY5Y cells (Homo sapiens, UniProt Q14012); conditions: 2µM; SH-SY5Y cells; labeling site Lys1; peptide LVAIKCIAK
Description: as §1

[10] = biological target: T3, cellular kinases of SH-SY5Y cells (Homo sapiens, UniProt Q14164); conditions: 2µM; SH-SY5Y cells; Labeling Site Lys1; SGELVAVKVFNTTSYLRPR; read-out: KiNativ in-cell binding, % Inhibition, IKBKE/IKKe
T3 construct: endogenous in cells; host or cells: SH-SY5Y
Description: as §1

[11] = biological target: T4, cellular kinases of SH-SY5Y cells (Homo sapiens, UniProt Q16513); conditions: 2µM; SH-SY5Y cells; labeling site Lys2; peptide DLKLDNLLLDTEGFVK
T4 construct: endogenous in cells; host or cells: SH-SY5Y
Description: as §1

[12] = biological target: cellular kinases of SH-SY5Y cells (Homo sapiens, UniProt Q16584); conditions: 2µM; SH-SY5Y cells; labeling site Lys2; peptide DLKSNNILLLQPIESDDMEHK
Description: as §1

[13] = biological target: T5, cellular kinases of SH-SY5Y cells (Homo sapiens, UniProt Q16644); conditions: 2µM; SH-SY5Y cells; Labeling Site ATP Loop; QVLGLGVNGKVLECFHR; read-out: KiNativ in-cell binding, % Inhibition, MAPKAPK3
T5 construct: endogenous in cells; host or cells: SH-SY5Y
Description: as §1

[14] = biological target: T6, cellular kinases of SH-SY5Y cells (Homo sapiens, UniProt Q8IVH8); conditions: 2µM, SH-SY5Y cells, read-out: KiNativ in-cell binding, % Inhibition, MAP4K3
T6 construct: endogenous in cells; host or cells: SH-SY5Y
T6 sequence (Q8IVH8 whole entry): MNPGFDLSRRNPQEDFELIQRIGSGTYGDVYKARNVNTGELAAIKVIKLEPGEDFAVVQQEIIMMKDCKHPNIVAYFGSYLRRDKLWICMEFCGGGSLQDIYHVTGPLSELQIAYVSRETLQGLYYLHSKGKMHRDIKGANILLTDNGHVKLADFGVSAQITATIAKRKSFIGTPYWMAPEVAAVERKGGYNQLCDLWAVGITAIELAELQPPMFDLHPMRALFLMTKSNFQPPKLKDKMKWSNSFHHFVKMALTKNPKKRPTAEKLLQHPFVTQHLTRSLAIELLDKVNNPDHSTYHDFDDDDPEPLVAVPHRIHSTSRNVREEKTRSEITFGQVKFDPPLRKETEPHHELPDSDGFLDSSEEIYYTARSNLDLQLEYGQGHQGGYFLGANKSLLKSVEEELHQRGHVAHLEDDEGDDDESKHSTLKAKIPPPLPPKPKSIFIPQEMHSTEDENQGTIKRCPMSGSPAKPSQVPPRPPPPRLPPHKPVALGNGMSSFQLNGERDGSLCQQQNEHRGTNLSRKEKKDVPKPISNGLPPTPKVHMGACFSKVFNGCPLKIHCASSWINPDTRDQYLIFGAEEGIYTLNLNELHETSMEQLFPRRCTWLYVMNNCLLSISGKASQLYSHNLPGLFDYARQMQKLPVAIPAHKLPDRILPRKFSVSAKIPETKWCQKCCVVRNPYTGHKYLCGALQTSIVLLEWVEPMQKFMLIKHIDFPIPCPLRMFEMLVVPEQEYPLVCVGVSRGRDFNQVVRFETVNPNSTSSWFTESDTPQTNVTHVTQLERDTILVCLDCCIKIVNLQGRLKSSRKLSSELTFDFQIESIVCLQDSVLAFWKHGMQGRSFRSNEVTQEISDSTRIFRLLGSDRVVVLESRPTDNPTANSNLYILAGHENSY
Description: as §1

[15] = biological target: T7, cellular kinases of SH-SY5Y cells (Homo sapiens, UniProt Q92918); conditions: 2µM, SH-SY5Y cells, read-out: KiNativ in-cell binding, % Inhibition, MAP4K1/HPK1
T7 construct: endogenous in cells; host or cells: SH-SY5Y
T7 sequence (Q92918 whole entry): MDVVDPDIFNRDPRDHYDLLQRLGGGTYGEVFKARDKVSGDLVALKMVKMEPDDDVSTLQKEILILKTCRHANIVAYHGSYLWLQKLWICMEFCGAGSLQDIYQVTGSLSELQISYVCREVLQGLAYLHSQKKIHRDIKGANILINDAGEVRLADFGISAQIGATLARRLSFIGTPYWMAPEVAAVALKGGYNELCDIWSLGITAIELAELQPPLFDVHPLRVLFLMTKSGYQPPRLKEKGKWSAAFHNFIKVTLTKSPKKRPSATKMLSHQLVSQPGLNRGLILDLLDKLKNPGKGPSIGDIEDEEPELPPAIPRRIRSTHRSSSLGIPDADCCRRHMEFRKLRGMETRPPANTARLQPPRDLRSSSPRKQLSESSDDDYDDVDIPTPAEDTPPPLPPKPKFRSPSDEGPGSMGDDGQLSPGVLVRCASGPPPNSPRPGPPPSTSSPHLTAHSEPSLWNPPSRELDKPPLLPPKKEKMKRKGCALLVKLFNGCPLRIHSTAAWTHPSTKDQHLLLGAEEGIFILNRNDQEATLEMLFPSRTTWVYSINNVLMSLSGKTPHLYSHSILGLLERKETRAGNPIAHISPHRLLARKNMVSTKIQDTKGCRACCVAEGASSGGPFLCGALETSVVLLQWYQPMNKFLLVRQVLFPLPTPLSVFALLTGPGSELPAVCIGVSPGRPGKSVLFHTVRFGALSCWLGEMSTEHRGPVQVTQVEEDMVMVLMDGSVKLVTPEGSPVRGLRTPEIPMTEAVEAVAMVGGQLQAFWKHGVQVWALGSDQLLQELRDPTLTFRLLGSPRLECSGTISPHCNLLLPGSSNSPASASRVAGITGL
Description: as §1

[16] = biological target: T8, cellular kinases of SH-SY5Y cells (Homo sapiens, UniProt Q96GX5); conditions: 2µM, SH-SY5Y cells, read-out: KiNativ in-cell binding, % Inhibition, MASTL
T8 construct: endogenous in cells; host or cells: SH-SY5Y
T8 sequence (Q96GX5 whole entry): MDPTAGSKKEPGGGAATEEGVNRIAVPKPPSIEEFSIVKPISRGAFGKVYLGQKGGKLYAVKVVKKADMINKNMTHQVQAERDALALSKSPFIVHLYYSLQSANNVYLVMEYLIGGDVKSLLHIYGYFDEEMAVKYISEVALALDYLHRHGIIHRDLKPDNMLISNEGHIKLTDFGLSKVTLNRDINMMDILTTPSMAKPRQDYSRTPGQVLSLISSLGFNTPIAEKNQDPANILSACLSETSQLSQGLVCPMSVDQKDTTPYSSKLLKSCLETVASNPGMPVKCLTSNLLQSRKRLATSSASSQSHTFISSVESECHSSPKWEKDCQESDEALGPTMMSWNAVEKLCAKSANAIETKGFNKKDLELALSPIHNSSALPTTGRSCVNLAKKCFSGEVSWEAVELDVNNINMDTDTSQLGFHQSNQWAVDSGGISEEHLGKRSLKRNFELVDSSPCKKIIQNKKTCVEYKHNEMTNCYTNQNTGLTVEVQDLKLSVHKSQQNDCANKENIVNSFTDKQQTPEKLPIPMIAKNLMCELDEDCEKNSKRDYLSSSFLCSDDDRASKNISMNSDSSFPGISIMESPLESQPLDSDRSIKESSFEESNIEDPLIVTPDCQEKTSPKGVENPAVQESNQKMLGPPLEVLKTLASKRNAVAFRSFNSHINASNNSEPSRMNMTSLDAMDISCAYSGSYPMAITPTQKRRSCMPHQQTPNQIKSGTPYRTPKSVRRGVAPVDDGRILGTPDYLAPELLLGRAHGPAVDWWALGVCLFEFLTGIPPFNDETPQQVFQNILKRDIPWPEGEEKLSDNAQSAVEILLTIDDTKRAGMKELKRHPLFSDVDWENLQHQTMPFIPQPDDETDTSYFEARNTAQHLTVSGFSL
Description: as §1

[17] = biological target: cellular kinases of SH-SY5Y cells (Homo sapiens, UniProt Q96Q15); conditions: 2µM, SH-SY5Y cells, Labeling Site ATP, read-out: KiNativ in-cell binding, % Inhibition, SMG1
Description: as §1

[18] = biological target: cellular kinases of SH-SY5Y cells (Homo sapiens, UniProt Q99759); conditions: 2µM; SH-SY5Y cells; Labeling Site Lys1; ELASKQVQFDPDSPETSKEVSALECEIQLLK; read-out: KiNativ in-cell binding, % Inhibition, MAP3K3
cellular kinases of SH-SY5Y cells (Homo sapiens, UniProt Q99759), sequence (Q99759 whole entry): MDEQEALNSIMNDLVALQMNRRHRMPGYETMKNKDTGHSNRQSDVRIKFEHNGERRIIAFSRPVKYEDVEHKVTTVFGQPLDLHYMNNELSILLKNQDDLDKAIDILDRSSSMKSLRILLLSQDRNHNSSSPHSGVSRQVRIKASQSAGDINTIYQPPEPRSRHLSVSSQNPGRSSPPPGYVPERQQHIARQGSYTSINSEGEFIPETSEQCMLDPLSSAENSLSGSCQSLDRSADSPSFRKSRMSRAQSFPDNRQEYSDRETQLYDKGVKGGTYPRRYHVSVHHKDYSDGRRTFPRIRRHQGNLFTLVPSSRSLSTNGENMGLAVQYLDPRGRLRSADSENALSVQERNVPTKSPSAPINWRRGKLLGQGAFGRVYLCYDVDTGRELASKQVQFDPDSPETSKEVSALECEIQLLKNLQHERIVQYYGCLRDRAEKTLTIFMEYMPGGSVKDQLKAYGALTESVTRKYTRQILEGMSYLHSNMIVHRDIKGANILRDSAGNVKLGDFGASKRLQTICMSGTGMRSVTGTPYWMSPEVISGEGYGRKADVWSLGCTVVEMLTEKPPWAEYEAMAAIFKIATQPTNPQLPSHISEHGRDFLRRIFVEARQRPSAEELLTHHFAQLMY
Description: as §1

[19] = biological target: T9, cellular kinases of SH-SY5Y cells (Homo sapiens, UniProt Q9UHD2); conditions: 2µM; SH-SY5Y cells; labeling site Lys1; peptide TGDLFAIKVFNNISFLRPVDVQMR
T9 construct: endogenous in cells; host or cells: SH-SY5Y
T9 sequence (Q9UHD2 whole entry): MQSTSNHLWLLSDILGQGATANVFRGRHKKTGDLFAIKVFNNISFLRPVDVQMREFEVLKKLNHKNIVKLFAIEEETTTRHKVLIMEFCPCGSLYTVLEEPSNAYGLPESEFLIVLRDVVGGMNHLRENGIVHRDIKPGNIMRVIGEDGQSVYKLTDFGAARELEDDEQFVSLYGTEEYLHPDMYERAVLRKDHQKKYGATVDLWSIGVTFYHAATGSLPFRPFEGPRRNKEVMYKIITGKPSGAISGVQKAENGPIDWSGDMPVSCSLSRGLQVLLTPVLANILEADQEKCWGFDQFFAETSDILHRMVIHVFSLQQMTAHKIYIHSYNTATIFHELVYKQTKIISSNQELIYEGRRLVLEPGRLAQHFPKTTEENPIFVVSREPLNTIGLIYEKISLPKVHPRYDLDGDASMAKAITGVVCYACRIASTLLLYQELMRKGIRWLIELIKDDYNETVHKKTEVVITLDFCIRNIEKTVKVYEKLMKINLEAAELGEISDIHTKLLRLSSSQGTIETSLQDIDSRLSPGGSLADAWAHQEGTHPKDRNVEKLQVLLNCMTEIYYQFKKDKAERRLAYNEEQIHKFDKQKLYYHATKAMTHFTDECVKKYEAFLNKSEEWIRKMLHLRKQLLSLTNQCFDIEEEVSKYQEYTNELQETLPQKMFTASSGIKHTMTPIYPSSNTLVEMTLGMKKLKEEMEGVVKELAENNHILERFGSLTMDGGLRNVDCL
Description: as §1

[20] = biological target: T10, cellular kinases of SH-SY5Y cells (Homo sapiens, UniProt Q9Y2H1); conditions: 2µM, SH-SY5Y cells
T10 construct: endogenous in cells; host or cells: SH-SY5Y
T10 sequence (Q9Y2H1 whole entry): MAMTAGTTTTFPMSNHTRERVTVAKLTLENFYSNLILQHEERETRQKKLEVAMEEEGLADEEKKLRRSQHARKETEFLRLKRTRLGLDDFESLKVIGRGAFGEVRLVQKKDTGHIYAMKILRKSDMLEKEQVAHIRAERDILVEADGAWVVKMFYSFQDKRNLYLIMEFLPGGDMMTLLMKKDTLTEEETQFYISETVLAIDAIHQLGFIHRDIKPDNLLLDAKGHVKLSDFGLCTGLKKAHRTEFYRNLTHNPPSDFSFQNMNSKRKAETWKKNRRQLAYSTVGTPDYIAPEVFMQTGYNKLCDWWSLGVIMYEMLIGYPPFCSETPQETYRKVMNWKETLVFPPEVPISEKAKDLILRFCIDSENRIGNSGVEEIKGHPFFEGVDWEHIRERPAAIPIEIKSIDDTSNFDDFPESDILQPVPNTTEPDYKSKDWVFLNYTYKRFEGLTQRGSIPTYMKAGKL
Description: as §1

`Cc1cccc(-c2nc(Nc3ccc4ncsc4c3)c3ccccc3n2)n1` [NK140] showed an inhibition at 2 µM ([1]; Labeling Site Lys1, VAIKIISK) of 7.7%, an inhibition at 2 µM ([1]; Labeling Site Lys2, DLKPENVLLSSQEEDCLIK) of 15.3% and an inhibition at 2 µM [2] of 17.1%. For the same compound, the “KiNativ in-cell binding, DGKA” value [3] was -19.6, the inhibition at 2 µM ([4]; Labeling Site Lys1, LTGEVVALKK, read-out: KiNativ in-cell binding, % Inhibition, CDK2) was 21.6% and the “KiNativ in-cell binding, CDK2” value ([4]; labeling site Lys2, peptide DLKPQNLLINTEGAIK) was 6.0. It also gave an inhibition at 2 µM [5] of -1.3%, an inhibition at 2 µM [6] of 18.4% and an inhibition at 2 µM [7] of 1.8%. The inhibition at 2 µM [8] was -14.7%, the “KiNativ in-cell binding, CaMK1” value [9] was -56.2 and the inhibition at 2 µM [10] was 34.5%. The “KiNativ in-cell binding, PKN2” value [11] was -28.2, the “KiNativ in-cell binding, MAP3K11” value [12] was -55.2 and the inhibition at 2 µM [13] was 16.2%. The inhibition at 2 µM ([14]; Labeling Site Lys1, NVNTGELAAIKVIK) was 29.8%, the inhibition at 2 µM ([14]; Labeling Site Lys2, DIKGANILLTDNGHVK) was 20.5% and the inhibition at 2 µM ([15]; Labeling Site Lys1, DKVSGDLVALKMVK) was 6.9%. It also gave an inhibition at 2 µM ([15]; Labeling Site Lys2, DIKGANILINDAGEVR) of 30.2%, an inhibition at 2 µM ([16]; Labeling Site ATP Loop, GAFGKVYLGQK) of 4.2% and an inhibition at 2 µM ([16]; Labeling Site Lys1, LYAVKVVK) of -7.7%. The inhibition at 2 µM ([17]; DTVTIHSVGGTITILPTKTKPK) was 11.2%, the inhibition at 2 µM ([17]; SYPYLFKGLEDLHLDER) was 43.7% and the inhibition at 2 µM [18] was 12.5%. For the same compound, the “KiNativ in-cell binding, TBK1” value [19] was -253.9, the inhibition at 2 µM ([20]; Labeling Site Lys1, DTGHIYAMKILR, read-out: KiNativ in-cell binding, % Inhibition, STK38L/NDR2) was -47.2% and the inhibition at 2 µM ([20]; Labeling Site Lys2, DIKPDNLLLDAK, read-out: KiNativ in-cell binding, % Inhibition, NDR2) was -39.9%.
